Source: the CombiSolv-Exp solvation set (Vermeire and Green 2021)

Test: solvent given as SMILES
[1] = in CCCCCCCCC=CCCCCCCCC(=O)OCC(COC(=O)CCCCCCCC=CCCCCCCCC)OC(=O)CCCCCCCC=CCCCCCCCC

OC1COC(O)C(O)C1O (stereo unspecified)
solvation free energy, 298 K (in O): -20.5 kcal/mol

CCCCCCc1ccccc1
solvation free energy, 298 K (in CO): -7.13 kcal/mol

Cc1cccc(O)c1C
solvation free energy, 298 K (in CC(C)CC(C)(C)C): -6.27 kcal/mol | solvation free energy, 298 K (in CCCCCC): -6.67 kcal/mol | solvation free energy, 298 K (in O): -6.12 kcal/mol

Cc1cccc(C)c1C
solvation free energy, 298 K (in O): -1.15 kcal/mol

O=[N+]([O-])c1ccc(Cl)c(Cl)c1Cl
solvation free energy, 298 K [1]: -10.1 kcal/mol | solvation free energy, 298 K (in O): -4.07 kcal/mol

FC(F)(F)c1ccccc1
solvation free energy, 298 K (in O): -0.25 kcal/mol

Nc1ccc(S(=O)(=O)Nc2ccccn2)cc1
solvation free energy, 298 K (in O): -18.7 kcal/mol

CCCCCCCCCCCCCCCCCCCC
solvation free energy, 298 K (in CC(=O)N(C)C): -13.6 kcal/mol | solvation free energy, 298 K (in CC(C)(C)O): -12.4 kcal/mol | solvation free energy, 298 K (in CCC(C)=O): -12.6 kcal/mol | solvation free energy, 298 K [1]: -12.5 kcal/mol | solvation free energy, 298 K (in CCCCOC(C)=O): -12.9 kcal/mol | solvation free energy, 298 K (in CCO): -11.4 kcal/mol | solvation free energy, 298 K (in CN(C)C=O): -13.6 kcal/mol | solvation free energy, 298 K (in COC(C)(C)C): -13.5 kcal/mol | solvation free energy, 298 K (in O): 4.52 kcal/mol

Clc1ccc(-c2ccccc2)cc1
solvation free energy, 298 K [1]: -9.7 kcal/mol | solvation free energy, 298 K (in CCCCCCCCO): -9.25 kcal/mol | solvation free energy, 298 K (in O): -2.44 kcal/mol

CC(C)C(C)C(C)C
solvation free energy, 298 K (in Brc1ccccc1): -4.64 kcal/mol | solvation free energy, 298 K (in C1CCCCC1): -5.1 kcal/mol | solvation free energy, 298 K (in C1CCOC1): -4.92 kcal/mol | solvation free energy, 298 K (in C1COCCO1): -4.17 kcal/mol | solvation free energy, 298 K (in C=CCCCC): -5 kcal/mol | solvation free energy, 298 K (in C=CCCCCCC): -4.92 kcal/mol | solvation free energy, 298 K (in C=CCCCCCCCC): -4.84 kcal/mol | solvation free energy, 298 K (in CC1COC(=O)O1): -2.86 kcal/mol | solvation free energy, 298 K (in CC#N): -3.46 kcal/mol | solvation free energy, 298 K (in CC(=O)N(C)C): -3.7 kcal/mol | solvation free energy, 298 K (in CC(=O)O): -3.77 kcal/mol | solvation free energy, 298 K (in CC(=O)c1ccccc1): -3.96 kcal/mol | solvation free energy, 298 K (in CC(C)=O): -4.14 kcal/mol | solvation free energy, 298 K (in CC(C)CC(C)(C)C): -4.9 kcal/mol | solvation free energy, 298 K (in CC(C)CCCC(C)CCCC(C)CCCCC(C)CCCC(C)CCCC(C)C): -4.48 kcal/mol | solvation free energy, 298 K (in CC(C)CCO): -4.31 kcal/mol | solvation free energy, 298 K (in CC(C)O): -4.09 kcal/mol | solvation free energy, 298 K (in CC(C)OC(C)C): -4.9 kcal/mol | solvation free energy, 298 K (in CCBr): -5.01 kcal/mol | solvation free energy, 298 K (in CCC#N): -3.86 kcal/mol | solvation free energy, 298 K (in CCC(C)=O): -4.39 kcal/mol | solvation free energy, 298 K (in CCCC#N): -4.14 kcal/mol | solvation free energy, 298 K (in CCCC(=O)OCC): -4.61 kcal/mol | solvation free energy, 298 K (in CCCC(C)=O): -4.49 kcal/mol | solvation free energy, 298 K (in CCCCC): -5.05 kcal/mol | solvation free energy, 298 K (in CCCCCC): -5.03 kcal/mol | solvation free energy, 298 K (in CCCCCC(C)=O): -4.51 kcal/mol | solvation free energy, 298 K (in CCCCCCC): -4.98 kcal/mol | solvation free energy, 298 K (in CCCCCCCC): -4.91 kcal/mol | solvation free energy, 298 K (in CCCCCCCCC): -4.87 kcal/mol | solvation free energy, 298 K (in CCCCCCCCCC): -4.84 kcal/mol | solvation free energy, 298 K (in CCCCCCCCCCCC): -4.74 kcal/mol | solvation free energy, 298 K (in CCCCCCCCCCCCCCCC): -4.66 kcal/mol | solvation free energy, 298 K (in CCCCCCCCO): -4.33 kcal/mol | solvation free energy, 298 K (in CCCCCCOC(C)=O): -4.59 kcal/mol | solvation free energy, 298 K (in CCCCO): -4.23 kcal/mol | solvation free energy, 298 K (in CCCCOC(C)=O): -4.56 kcal/mol | solvation free energy, 298 K (in CCCCOCCCC): -4.88 kcal/mol | solvation free energy, 298 K (in CCCO): -4.1 kcal/mol | solvation free energy, 298 K (in CCN(CC)CC): -4.98 kcal/mol | solvation free energy, 298 K (in CCO): -4.02 kcal/mol | solvation free energy, 298 K (in CCOC(C)=O): -4.41 kcal/mol | solvation free energy, 298 K (in CCOCC): -4.96 kcal/mol | solvation free energy, 298 K (in CCOCCOCCOCC): -4.33 kcal/mol | solvation free energy, 298 K (in CCOc1ccccc1): -4.42 kcal/mol | solvation free energy, 298 K (in CN1CCCC1=O): -3.6 kcal/mol | solvation free energy, 298 K (in CN(C)C=O): -3.53 kcal/mol | solvation free energy, 298 K (in CN(C)P(=O)(N(C)C)N(C)C): -3.97 kcal/mol | solvation free energy, 298 K (in CNC=O): -3.19 kcal/mol | solvation free energy, 298 K (in CO): -3.64 kcal/mol | solvation free energy, 298 K (in COC(C)=O): -4.22 kcal/mol | solvation free energy, 298 K (in COCCO): -3.52 kcal/mol | solvation free energy, 298 K (in COc1ccccc1): -4.35 kcal/mol | solvation free energy, 298 K (in CS(C)=O): -2.63 kcal/mol | solvation free energy, 298 K (in Cc1ccc(C)cc1): -4.85 kcal/mol | solvation free energy, 298 K (in Cc1ccccc1): -4.85 kcal/mol | solvation free energy, 298 K (in Cc1ccccn1): -4.45 kcal/mol | solvation free energy, 298 K (in ClC(Cl)(Cl)Cl): -5.09 kcal/mol | solvation free energy, 298 K (in ClC(Cl)Cl): -4.98 kcal/mol | solvation free energy, 298 K (in ClCCCl): -4.4 kcal/mol | solvation free energy, 298 K (in ClCCl): -4.74 kcal/mol | solvation free energy, 298 K (in Clc1ccccc1): -4.84 kcal/mol | solvation free energy, 298 K (in FC(F)(F)C(F)(F)C(F)(F)C(F)(F)C(F)(F)C(F)(F)C(F)(F)C(F)(F)F): -3.34 kcal/mol | solvation free energy, 298 K (in FC(F)(F)C(F)(F)C(F)(F)C(F)(F)C(F)(F)C(F)(F)F): -3.4 kcal/mol | solvation free energy, 298 K (in Fc1ccccc1): -4.75 kcal/mol | solvation free energy, 298 K (in ICI): -2.94 kcal/mol | solvation free energy, 298 K (in N#Cc1ccccc1): -4.01 kcal/mol | solvation free energy, 298 K (in Nc1ccccc1): -3.27 kcal/mol | solvation free energy, 298 K (in O): 2.57 kcal/mol | solvation free energy, 298 K (in O=C1CCCCC1): -4.32 kcal/mol | solvation free energy, 298 K (in O=C1CCCO1): -3.01 kcal/mol | solvation free energy, 298 K (in OCc1ccccc1): -3.52 kcal/mol | solvation free energy, 298 K (in S=C=S): -5.06 kcal/mol | solvation free energy, 298 K (in c1ccccc1): -4.83 kcal/mol | solvation free energy, 298 K (in c1ccncc1): -4.17 kcal/mol

C=C(C)C1CCC(C)C12CC=C(C)CC2 (stereo unspecified)
solvation free energy, 298 K (in O): 0.25 kcal/mol

Clc1ccc(C(c2ccc(Cl)cc2)C(Cl)(Cl)Cl)cc1
solvation free energy, 298 K [1]: -14.9 kcal/mol | solvation free energy, 298 K (in CCCCCCCCO): -13.8 kcal/mol | solvation free energy, 298 K (in O): -4.61 kcal/mol

CCCCCCCCCCCCCCCC(=O)OCC
solvation free energy, 298 K (in O): -7.23 kcal/mol

CCCCCCCCBr
solvation free energy, 298 K (in O): 0.52 kcal/mol

C=C1CCC23CC1C(C)(C)C2CCC3C (stereo unspecified)
solvation free energy, 298 K (in O): 0.8 kcal/mol

CC(C)(Cl)Cl
solvation free energy, 298 K (in O): -0.43 kcal/mol

O=P(c1ccccc1)(c1ccccc1)c1ccccc1
solvation free energy, 298 K (in O): -17 kcal/mol

C1=CCCCCCC1
solvation free energy, 298 K (in CN1CCCC1=O): -4.91 kcal/mol | solvation free energy, 298 K (in CN(C)C=O): -4.77 kcal/mol

ClCCOCCCl
solvation free energy, 298 K (in O): -4.23 kcal/mol

CCCOCCOC(=O)c1ccccc1C(=O)OCCOCCC
solvation free energy, 298 K (in O): -13.2 kcal/mol

O=[N+]([O-])c1c(Cl)c(Cl)c(Cl)c(Cl)c1Cl
solvation free energy, 298 K [1]: -10.5 kcal/mol
